Assay results from PubChem BioAssay (NCI).
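Interpolation was linear, between the two tested concentrations surrounding the appropriate level; five concentrations were tested over 48 hours in 96-well plates. GI50 marks 50% less growth. TGI is the concentration that stops growth completely.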

What was measured:
Assay in all cases: DTP human tumour cell line panel, 48 h
786-0 renal = system: 786-0 renal
A498 renal = system: A498 renal
A549 NSCLC = system: A549 NSCLC
ACHN renal = system: ACHN renal
BT-549 breast = system: BT-549 breast
CAKI-1 renal = system: CAKI-1 renal
CCRF-CEM leukemia = system: CCRF-CEM leukemia
COLO 205 colon = system: COLO 205 colon
DU-145 prostate = system: DU-145 prostate
EKVX NSCLC = system: EKVX NSCLC
HCC-2998 colon = system: HCC-2998 colon
HCT-116 colon = system: HCT-116 colon
HCT-15 colon = system: HCT-15 colon
HL-60(TB) leukemia = system: HL-60(TB) leukemia
HOP-62 NSCLC = system: HOP-62 NSCLC
HOP-92 NSCLC = system: HOP-92 NSCLC
HS 578T breast = system: HS 578T breast
HT29 colon = system: HT29 colon
IGROV1 ovarian = system: IGROV1 ovarian
K-562 leukemia = system: K-562 leukemia
KM12 colon = system: KM12 colon
LOX IMVI melanoma = system: LOX IMVI melanoma
M14 melanoma = system: M14 melanoma
MALME-3M melanoma = system: MALME-3M melanoma
MCF7 breast = system: MCF7 breast
MDA-MB-231 breast = system: MDA-MB-231 breast
MDA-MB-435 = system: MDA-MB-435
MOLT-4 leukemia = system: MOLT-4 leukemia
NCI-H226 lung = system: NCI-H226 lung
NCI-H23 lung = system: NCI-H23 lung
NCI-H460 lung = system: NCI-H460 lung
NCI-H522 lung = system: NCI-H522 lung
NCI/ADR-RES ovarian = system: NCI/ADR-RES ovarian
OVCAR-3 ovarian = system: OVCAR-3 ovarian
OVCAR-4 ovarian = system: OVCAR-4 ovarian
OVCAR-5 ovarian = system: OVCAR-5 ovarian
OVCAR-8 ovarian = system: OVCAR-8 ovarian
PC-3 prostate = system: PC-3 prostate
RPMI-8226 leukemia = system: RPMI-8226 leukemia
RXF 393 renal = system: RXF 393 renal
SF-268 CNS = system: SF-268 CNS
SF-295 CNS = system: SF-295 CNS
SF-539 CNS = system: SF-539 CNS
SK-MEL-2 melanoma = system: SK-MEL-2 melanoma
SK-MEL-28 melanoma = system: SK-MEL-28 melanoma
SK-MEL-5 melanoma = system: SK-MEL-5 melanoma
SK-OV-3 ovarian = system: SK-OV-3 ovarian
SN12C renal = system: SN12C renal
SNB-19 CNS = system: SNB-19 CNS
SR leukemia = system: SR leukemia
SW-620 colon = system: SW-620 colon
T-47D breast = system: T-47D breast
TK-10 renal = system: TK-10 renal
U251 CNS = system: U251 CNS
UACC-257 melanoma = system: UACC-257 melanoma
UACC-62 melanoma = system: UACC-62 melanoma
UO-31 renal = system: UO-31 renal

COc1ccc(C2C3=C(COC3=O)N(CCO)c3cc4c(cc32)OCCO4)cc1OC (configuration not stated) was tested, and the GI50 (786-0 renal) was 2.48 µM, the TGI (786-0 renal) was over 50 µM and the GI50 (A498 renal) was 1.61 µM. It also gave a TGI (A498 renal) of over 15.6 µM, a GI50 (A549 NSCLC) of 5.11 µM and a TGI (A549 NSCLC) of over 50 µM. The GI50 (ACHN renal) was over 50 µM, the TGI (ACHN renal) was over 50 µM and the GI50 (BT-549 breast) was 5.06 µM. For the same compound, the TGI (BT-549 breast) was over 47.9 µM, the GI50 (CAKI-1 renal) was 4.03 µM and the TGI (CAKI-1 renal) was over 50 µM. The GI50 (CCRF-CEM leukemia) was 2.02 µM, the TGI (CCRF-CEM leukemia) was over 50 µM and the GI50 (COLO 205 colon) was 1.34 µM. It also gave a TGI (COLO 205 colon) of 3.62 µM, a GI50 (DU-145 prostate) of 1.93 µM and a TGI (DU-145 prostate) of 14.9 µM. It also gave a GI50 (EKVX NSCLC) of 5.98 µM, a TGI (EKVX NSCLC) of over 50 µM and a GI50 (HCC-2998 colon) of 1.76 µM. For the same compound, the TGI (HCC-2998 colon) was 8.67 µM, the GI50 (HCT-116 colon) was 1.96 µM and the TGI (HCT-116 colon) was over 50 µM. For the same compound, the GI50 (HCT-15 colon) was 5.39 µM, the TGI (HCT-15 colon) was over 50 µM and the GI50 (HL-60(TB) leukemia) was 1.28 µM. It also gave a TGI (HL-60(TB) leukemia) of 5.65 µM, a GI50 (HOP-62 NSCLC) of 9.58 µM and a TGI (HOP-62 NSCLC) of over 50 µM. For the same compound, the GI50 (HOP-92 NSCLC) was 0.837 µM, the TGI (HOP-92 NSCLC) was over 50 µM and the GI50 (HS 578T breast) was 1.44 µM. The TGI (HS 578T breast) was over 50 µM, the GI50 (HT29 colon) was 1.64 µM and the TGI (HT29 colon) was over 14.9 µM. It also gave a GI50 (IGROV1 ovarian) of 1.91 µM, a TGI (IGROV1 ovarian) of 14.9 µM and a GI50 (K-562 leukemia) of 1.38 µM. It also gave a TGI (K-562 leukemia) of over 50 µM, a GI50 (KM12 colon) of 1.35 µM and a TGI (KM12 colon) of over 38.7 µM. For the same compound, the GI50 (LOX IMVI melanoma) was 3.84 µM, the TGI (LOX IMVI melanoma) was over 50 µM and the GI50 (M14 melanoma) was 1.94 µM. It also gave a TGI (M14 melanoma) of over 30.7 µM, a GI50 (MALME-3M melanoma) of over 50 µM and a TGI (MALME-3M melanoma) of over 50 µM. For the same compound, the GI50 (MCF7 breast) was 0.634 µM, the TGI (MCF7 breast) was over 50 µM and the GI50 (MDA-MB-231 breast) was 6.78 µM. For the same compound, the TGI (MDA-MB-231 breast) was 36.5 µM, the GI50 (MDA-MB-435) was 0.255 µM and the TGI (MDA-MB-435) was 1.78 µM. For the same compound, the GI50 (MOLT-4 leukemia) was 2.85 µM, the TGI (MOLT-4 leukemia) was over 47.4 µM and the GI50 (NCI-H226 lung) was over 50 µM. The TGI (NCI-H226 lung) was over 50 µM, the GI50 (NCI-H23 lung) was 2.25 µM and the TGI (NCI-H23 lung) was over 50 µM. For the same compound, the GI50 (NCI-H460 lung) was 1.84 µM, the TGI (NCI-H460 lung) was over 18.9 µM and the GI50 (NCI-H522 lung) was 0.27 µM. The TGI (NCI-H522 lung) was 1.38 µM, the GI50 (NCI/ADR-RES ovarian) was 11.4 µM and the TGI (NCI/ADR-RES ovarian) was over 50 µM. It also gave a GI50 (OVCAR-3 ovarian) of 1.11 µM, a TGI (OVCAR-3 ovarian) of 3 µM and a GI50 (OVCAR-4 ovarian) of 3.67 µM. The TGI (OVCAR-4 ovarian) was over 50 µM, the GI50 (OVCAR-5 ovarian) was 18.4 µM and the TGI (OVCAR-5 ovarian) was over 50 µM. For the same compound, the GI50 (OVCAR-8 ovarian) was 4.46 µM, the TGI (OVCAR-8 ovarian) was over 50 µM and the GI50 (PC-3 prostate) was 1.58 µM. It also gave a TGI (PC-3 prostate) of over 50 µM, a GI50 (RPMI-8226 leukemia) of 1.91 µM and a TGI (RPMI-8226 leukemia) of over 12.6 µM. It also gave a GI50 (RXF 393 renal) of 0.807 µM, a TGI (RXF 393 renal) of 2.86 µM and a GI50 (SF-268 CNS) of 4.3 µM. For the same compound, the TGI (SF-268 CNS) was over 50 µM, the GI50 (SF-295 CNS) was 0.922 µM and the TGI (SF-295 CNS) was 12 µM. For the same compound, the GI50 (SF-539 CNS) was 1.69 µM, the TGI (SF-539 CNS) was over 18 µM and the GI50 (SK-MEL-2 melanoma) was 0.979 µM. For the same compound, the TGI (SK-MEL-2 melanoma) was 3.65 µM, the GI50 (SK-MEL-28 melanoma) was over 50 µM and the TGI (SK-MEL-28 melanoma) was over 50 µM. It also gave a GI50 (SK-MEL-5 melanoma) of 0.906 µM, a TGI (SK-MEL-5 melanoma) of over 50 µM and a GI50 (SK-OV-3 ovarian) of 1.98 µM. The TGI (SK-OV-3 ovarian) was over 50 µM, the GI50 (SN12C renal) was over 15.7 µM and the TGI (SN12C renal) was over 50 µM. The TGI (SNB-19 CNS) was over 30.5 µM, the GI50 (SR leukemia) was 0.741 µM and the TGI (SR leukemia) was 35.8 µM. For the same compound, the GI50 (SW-620 colon) was 1.8 µM, the TGI (SW-620 colon) was over 50 µM and the GI50 (T-47D breast) was 2.17 µM. For the same compound, the TGI (T-47D breast) was over 50 µM, the GI50 (TK-10 renal) was over 10.2 µM and the TGI (TK-10 renal) was over 36.3 µM. The GI50 (U251 CNS) was 2.89 µM, the TGI (U251 CNS) was over 50 µM and the GI50 (UACC-257 melanoma) was 2.4 µM. For the same compound, the TGI (UACC-257 melanoma) was over 50 µM, the TGI (UACC-62 melanoma) was over 50 µM and the GI50 (UO-31 renal) was 4.09 µM. It also gave a TGI (UO-31 renal) of over 50 µM.
